# In patent US20250388575A1, “HETEROBIFUNCTIONAL COMPOUNDS AND METHODS OF TREATING DISEASE” (Halda Therapeutics OpCo, Inc., priority 2022, published 2025):
# pKd, pKi: −log10 of the molar value.
# Experiments:
# [1] = tested on: T-Rex 293 cell line SC3 cells having increased expression of androgen receptor protein; assay: Cellular growth inhibition, T-Rex 293 SC3 cells with increased androgen receptor expression (doxycycline), CellTiter-Glo; format: cell-based; settings: T-Rex 293 SC3 cells with increased androgen receptor expression (exposed to 10 ng/mL doxycycline), 72 hours, CellTiter-Glo; read-out: GI50
# Method in brief: (§1)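 SC3, a T-Rex 293 clone with doxycycline-inducible wild-type androgen receptor, was seeded in phenol red-free DMEM with 10% charcoal-dextran FBS, with or without 10 ng/mL doxycycline. Compound added at 24 h (0.5% DMSO) for 72 h at 37° C. CellTiter-Glo 2.0 luminescence; GI50 from four-parameter fit.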
# VCaP cells = assay: Cellular growth inhibition assay for VCaP cells, CellTiter-Glo; format: cell-based, human; settings: Homo sapiens; VCaP cells, 72 hours, CellTiter-Glo; read-out: GI50
# Method in brief: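 GI50 values come from four-parameter curve fits of luminescence data normalized to a zero baseline. Compound, in medium with 0.5% DMSO, was added one day after plating and left for 72 h before CellTiter-Glo 2.0 addition.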
# progesterone receptor = progesterone receptor (Homo sapiens, UniProt P06401); assay: PR Human Progesterone NHR Binding (Agonist Radioligand) Assay, [3H]progesterone, T47D cytosol; settings: 0.5 nM [3H]progesterone, T47D cytosolic fractions, 1 hour at 4° C., legend words it as Kd
# Sequence of progesterone receptor (P06401 whole entry, looked up): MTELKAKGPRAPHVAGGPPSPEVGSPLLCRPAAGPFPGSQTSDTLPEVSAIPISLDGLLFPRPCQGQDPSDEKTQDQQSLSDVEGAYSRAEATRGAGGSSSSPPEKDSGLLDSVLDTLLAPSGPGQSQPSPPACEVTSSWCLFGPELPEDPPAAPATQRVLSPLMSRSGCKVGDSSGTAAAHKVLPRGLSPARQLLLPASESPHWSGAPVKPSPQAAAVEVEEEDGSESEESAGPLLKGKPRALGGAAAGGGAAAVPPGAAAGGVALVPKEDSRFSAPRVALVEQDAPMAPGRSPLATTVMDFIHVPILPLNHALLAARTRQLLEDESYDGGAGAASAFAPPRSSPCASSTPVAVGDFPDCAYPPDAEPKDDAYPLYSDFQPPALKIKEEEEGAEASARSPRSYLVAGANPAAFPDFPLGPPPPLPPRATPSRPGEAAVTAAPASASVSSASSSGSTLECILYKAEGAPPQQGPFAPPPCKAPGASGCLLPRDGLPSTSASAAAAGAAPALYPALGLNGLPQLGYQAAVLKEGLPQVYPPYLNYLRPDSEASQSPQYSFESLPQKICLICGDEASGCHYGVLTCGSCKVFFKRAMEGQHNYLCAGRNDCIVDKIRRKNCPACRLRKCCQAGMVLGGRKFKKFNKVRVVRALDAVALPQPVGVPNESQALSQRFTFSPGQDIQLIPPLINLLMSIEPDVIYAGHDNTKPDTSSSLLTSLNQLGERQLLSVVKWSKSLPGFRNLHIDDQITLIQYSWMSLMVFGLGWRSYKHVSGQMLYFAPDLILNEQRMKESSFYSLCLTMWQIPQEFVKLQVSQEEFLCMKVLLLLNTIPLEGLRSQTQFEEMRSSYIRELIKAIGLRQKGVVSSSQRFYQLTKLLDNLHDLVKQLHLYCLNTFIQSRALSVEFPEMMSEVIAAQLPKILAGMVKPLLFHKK
# Protocol: Compounds were tested using the PR Human Progesterone NHR Binding (Agonist Radioligand) Assay, Cerep at Eurofins Discovery using a modified version of the protocol from Sarup et al. (Cancer Res 1988; 48:5071-5078). Briefly, cytosolic fractions of T47D cells were incubated with 0.5 nM [^3H]progesterone for 1 hour at 4° C. in the absence or presence of the test compound. Nonspecific binding was determined in the presence of 1 μM promegestone. Reactions were subjected to scintillation counting. Results are expressed as a percent inhibition of the control radioligand specific binding.
# [2] = tested on: T-Rex 293 cell line SC3 cells lacking increased expression of androgen receptor protein; assay: Cellular growth inhibition, T-Rex 293 SC3 cells lacking increased androgen receptor expression (no doxycycline), CellTiter-Glo; format: cell-based; settings: T-Rex 293 SC3 cells lacking increased androgen receptor expression (not exposed to doxycycline), 72 hours, CellTiter-Glo; read-out: GI50
# Method in brief: as §1
# androgen receptor = androgen receptor (Homo sapiens, UniProt P10275); assay: Assay for binding affinity to androgen receptor ([3H]methyltrienolone radioligand, cell cytosol); settings: binding to the androgen receptor, 1 nM [3H]methyltrienolone, 24 hr at 4° C.
# Sequence of androgen receptor (P10275 whole entry, looked up): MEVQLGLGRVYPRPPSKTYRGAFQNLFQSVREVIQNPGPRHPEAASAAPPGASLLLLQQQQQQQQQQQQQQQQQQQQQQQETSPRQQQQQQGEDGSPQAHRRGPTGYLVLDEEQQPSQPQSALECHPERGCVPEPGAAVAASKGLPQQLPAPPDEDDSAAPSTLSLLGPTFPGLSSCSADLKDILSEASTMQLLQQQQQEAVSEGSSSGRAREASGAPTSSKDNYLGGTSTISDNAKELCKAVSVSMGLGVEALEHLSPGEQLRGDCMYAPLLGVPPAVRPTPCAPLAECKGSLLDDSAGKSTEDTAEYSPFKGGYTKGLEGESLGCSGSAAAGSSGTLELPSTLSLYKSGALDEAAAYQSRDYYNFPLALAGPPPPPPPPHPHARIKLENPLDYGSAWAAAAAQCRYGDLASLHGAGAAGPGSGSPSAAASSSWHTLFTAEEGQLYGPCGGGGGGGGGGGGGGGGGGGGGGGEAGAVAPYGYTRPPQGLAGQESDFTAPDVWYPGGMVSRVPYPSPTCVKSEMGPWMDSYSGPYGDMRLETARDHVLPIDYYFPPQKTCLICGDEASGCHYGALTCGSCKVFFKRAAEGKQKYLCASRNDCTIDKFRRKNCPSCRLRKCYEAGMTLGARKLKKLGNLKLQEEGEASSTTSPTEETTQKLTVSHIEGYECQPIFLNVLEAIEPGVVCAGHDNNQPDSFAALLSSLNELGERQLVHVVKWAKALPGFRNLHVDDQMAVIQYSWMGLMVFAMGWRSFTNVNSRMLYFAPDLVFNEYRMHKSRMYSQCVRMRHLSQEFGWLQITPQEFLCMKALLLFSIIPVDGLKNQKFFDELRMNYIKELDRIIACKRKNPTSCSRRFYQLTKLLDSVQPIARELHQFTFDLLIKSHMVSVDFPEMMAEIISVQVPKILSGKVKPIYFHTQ
# Protocol: Fractions of cell cytosol (106 cell/point) were incubated for 24 hr at 4° C. with 1 nM [^3H]methyltrienolone in the absence or presence of the test compound in a buffer containing 25 mM Hepes-Tris (pH 7.4), 1 mM EDTA, 10 mM Na2MoO4, 2 mM DTT, 5 µM triamcinolone acetonide, and 10% glycerol. Nonspecific binding was determined in the presence of 1 μM testosterone. Following incubation, the samples were filtered rapidly under vacuum through glass fiber filters (GF/B, Packard) presoaked with 0.3% PEI and rinsed several times with ice-cold 50 mM Tris-HCl using a 96-sample cell harvester (Unifilter, Packard). The filters were dried then counted for radioactivity in a scintillation counter (Topcount, Packard) using a scintillation cocktail (Microscint 0, Packard). The results are expressed as a percent inhibition of the control radioligand specific binding. The standard reference compound is testosterone, which is tested in each experiment at several concentrations to obtain a competition curve from which its IC50 is calculated.
compound,measurement,setting,value
CCS(=O)(=O)Cc1ccc(Oc2cccc(OCCOC3CCN(c4cnc(C(=O)N[C@H]5CC[C@H](Oc6ccc(C#N)c(Cl)c6)CC5)cn4)CC3)c2F)c(-c2cn(C)c(=O)c3[nH]ccc23)c1 [I-28],GI50,[1],< 500 nM
same,GI50,VCaP cells,< 500 nM
same,pKi,progesterone receptor,5.60 to 6.30
same,GI50,[2],< 500 nM
same,pKd,androgen receptor,6.30 to 7.30
